PubChem BioAssay AID1963444 (Molecular Pharmacology Branch, DTP, NCI, 2024)

Test system: HSSY-II complex spheroid growth, percent test/control
Experiment: Anticancer human tumor HSSY-II cell line growth inhibition [Asc];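 note: spheroids exposed to drug for 7 days before reading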
Conditions: for IC50: curve of first compound; for viability, T/C: stronger effect = lower value
How it was run: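 Spheroid model: tumor line + HUVEC + hMSC. Single agents and combinations; top conc. at/near clinical Cmax (10 microM if undetermined), half-log dilutions. DMSO stocks at 800-fold test concentration.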

Q: Which results are given for CNC(C)C(=O)NC1CN(S(=O)(=O)c2cccc(S(=O)(=O)N3CCC4CCC(C(=O)NC(c5ccccc5)c5ccccc5)N4C(=O)C(NC(=O)C(C)NC)C3)c2)CCC2CCC(C(=O)NC(c3ccccc3)c3ccccc3)N2C1=O (stereo not given) + Cc1c(S(C)(=O)=O)c(-c2cc(F)cc(N3CCN(c4ccc(NS(=O)(=O)c5ccc(NC(CCN6CCC(C(=O)OCCCP(=O)(O)O)CC6)CSc6ccccc6)c(S(=O)(=O)C(F)(F)F)c5)cc4)CC3)c2)c(-c2ccc(Cl)cc2)n1C(C)C?
A: IC50 (second compound 0.1 µM): > 1000 nM; IC50 (second compound 0.316 µM): > 1000 nM; IC50 (second compound 1 µM): > 1000 nM; IC50 (second compound 3.16 µM): > 1000 nM; IC50 (second compound 10 µM): > 1000 nM; viability, T/C (second compound 0.1 µM, first compound 0.00316 µM): 114%; viability, T/C (second compound 0.1 µM, first compound 0.01 µM): 100%; viability, T/C (second compound 0.1 µM, first compound 0.0316 µM): 103%; viability, T/C (second compound 0.1 µM, first compound 0.1 µM): 90.6%; viability, T/C (second compound 0.1 µM, first compound 0.316 µM): 96.9%; viability, T/C (second compound 0.1 µM, first compound 1 µM): 88.1%; viability, T/C (second compound 0.316 µM, first compound 0.00316 µM): 116%; viability, T/C (second compound 0.316 µM, first compound 0.01 µM): 90.5%; viability, T/C (second compound 0.316 µM, first compound 0.0316 µM): 90.7%; viability, T/C (second compound 0.316 µM, first compound 0.1 µM): 84.7%; viability, T/C (second compound 0.316 µM, first compound 0.316 µM): 103%; viability, T/C (second compound 0.316 µM, first compound 1 µM): 86%; viability, T/C (second compound 1 µM, first compound 0.00316 µM): 98.7%; viability, T/C (second compound 1 µM, first compound 0.01 µM): 97%; viability, T/C (second compound 1 µM, first compound 0.0316 µM): 90.4%; viability, T/C (second compound 1 µM, first compound 0.1 µM): 82%; viability, T/C (second compound 1 µM, first compound 0.316 µM): 89.3%; viability, T/C (second compound 1 µM, first compound 1 µM): 90.9%; viability, T/C (second compound 3.16 µM, first compound 0.00316 µM): 93.2%; viability, T/C (second compound 3.16 µM, first compound 0.01 µM): 94.2%; viability, T/C (second compound 3.16 µM, first compound 0.0316 µM): 81%; viability, T/C (second compound 3.16 µM, first compound 0.1 µM): 81.5%; viability, T/C (second compound 3.16 µM, first compound 0.316 µM): 71.4%; viability, T/C (second compound 3.16 µM, first compound 1 µM): 83.3%; viability, T/C (second compound 10 µM, first compound 0.00316 µM): 93.2%; viability, T/C (second compound 10 µM, first compound 0.01 µM): 94.7%; viability, T/C (second compound 10 µM, first compound 0.0316 µM): 80.7%; viability, T/C (second compound 10 µM, first compound 0.1 µM): 79.5%; viability, T/C (second compound 10 µM, first compound 0.316 µM): 77.4%; viability, T/C (second compound 10 µM, first compound 1 µM): 76.3%

Q: Cc1nc(N2CCC3(CC2)COC(C)C3N)c(CO)nc1Sc1ccnc(N)c1Cl (stereo not given) + Cc1c(S(C)(=O)=O)c(-c2cc(F)cc(N3CCN(c4ccc(NS(=O)(=O)c5ccc(NC(CCN6CCC(C(=O)OCCCP(=O)(O)O)CC6)CSc6ccccc6)c(S(=O)(=O)C(F)(F)F)c5)cc4)CC3)c2)c(-c2ccc(Cl)cc2)n1C(C)C was tested. Which IC50 (second compound 0.1 µM) did it give?
A: Its IC50 is > 3000 nM.

Q: And the IC50 (second compound 0.316 µM)?
A: Its IC50 is > 3000 nM.

Q: And the IC50 (second compound 1 µM)?
A: Its IC50 is > 3000 nM.

Q: What about the IC50 (second compound 3.16 µM) of the same compound?
A: The IC50 was > 3000 nM.

Q: And the IC50 (second compound 10 µM)?
A: The IC50 was > 3000 nM.

Q: And the viability, T/C (second compound 0.1 µM, first compound 0.00949 µM)?
A: The viability, T/C was 79.8%.

Q: And the viability, T/C (second compound 0.1 µM, first compound 0.03 µM)?
A: The viability, T/C was 83.8%.

Q: What about the viability, T/C (second compound 0.1 µM, first compound 0.0949 µM) of the same compound?
A: Its viability, T/C is 88.9%.

Q: And the viability, T/C (second compound 0.1 µM, first compound 0.3 µM)?
A: Its viability, T/C is 78.8%.

Q: And the viability, T/C (second compound 0.1 µM, first compound 0.949 µM)?
A: The viability, T/C was 84.9%.

Q: What about the viability, T/C (second compound 0.1 µM, first compound 3 µM) of the same compound?
A: The viability, T/C was 60.2%.

Q: And the viability, T/C (second compound 0.316 µM, first compound 0.00949 µM)?
A: The viability, T/C was 59.4%.

Q: And the viability, T/C (second compound 0.316 µM, first compound 0.03 µM)?
A: Its viability, T/C is 71.4%.

Q: And the viability, T/C (second compound 0.316 µM, first compound 0.0949 µM)?
A: The viability, T/C was 60.7%.

Q: What about the viability, T/C (second compound 0.316 µM, first compound 0.3 µM) of the same compound?
A: Its viability, T/C is 79.1%.

Q: What about the viability, T/C (second compound 0.316 µM, first compound 0.949 µM) of the same compound?
A: The viability, T/C was 65.3%.

Q: What about the viability, T/C (second compound 0.316 µM, first compound 3 µM) of the same compound?
A: Its viability, T/C is 61.7%.

Q: And the viability, T/C (second compound 1 µM, first compound 0.00949 µM)?
A: The viability, T/C was 68.1%.

Q: What about the viability, T/C (second compound 1 µM, first compound 0.03 µM) of the same compound?
A: Its viability, T/C is 66.1%.

Q: What about the viability, T/C (second compound 1 µM, first compound 0.0949 µM) of the same compound?
A: Its viability, T/C is 78.5%.

Q: What about the viability, T/C (second compound 1 µM, first compound 0.3 µM) of the same compound?
A: Its viability, T/C is 51.7%.

Q: What about the viability, T/C (second compound 1 µM, first compound 0.949 µM) of the same compound?
A: The viability, T/C was 67.5%.

Q: And the viability, T/C (second compound 1 µM, first compound 3 µM)?
A: The viability, T/C was 59.2%.

Q: And the viability, T/C (second compound 3.16 µM, first compound 0.00949 µM)?
A: The viability, T/C was 64.1%.

Q: What about the viability, T/C (second compound 3.16 µM, first compound 0.03 µM) of the same compound?
A: Its viability, T/C is 53.9%.

Q: And the viability, T/C (second compound 3.16 µM, first compound 0.0949 µM)?
A: Its viability, T/C is 65%.

Q: And the viability, T/C (second compound 3.16 µM, first compound 0.3 µM)?
A: The viability, T/C was 58.1%.

Q: And the viability, T/C (second compound 3.16 µM, first compound 0.949 µM)?
A: The viability, T/C was 63.3%.

Q: What about the viability, T/C (second compound 3.16 µM, first compound 3 µM) of the same compound?
A: Its viability, T/C is 62.2%.

Q: And the viability, T/C (second compound 10 µM, first compound 0.00949 µM)?
A: The viability, T/C was 50.7%.

Q: And the viability, T/C (second compound 10 µM, first compound 0.03 µM)?
A: Its viability, T/C is 64.1%.

Q: And the viability, T/C (second compound 10 µM, first compound 0.0949 µM)?
A: Its viability, T/C is 62.7%.

Q: What about the viability, T/C (second compound 10 µM, first compound 0.3 µM) of the same compound?
A: Its viability, T/C is 48.3%.

Q: And the viability, T/C (second compound 10 µM, first compound 0.949 µM)?
A: Its viability, T/C is 51.3%.

Q: And the viability, T/C (second compound 10 µM, first compound 3 µM)?
A: The viability, T/C was 54.6%.
